# “And” between values parts separate entries of the source, which are not always exact repeats. Equal entries are not always repeated.
# Key:
# [1] = Morbidity and overt toxicity in treated tumor-bearing mice
# Experimental: Control animals received an injection at the same time of 200 μl of saline. Stock solutions were stored at −80 °C and thawed before each administration.
# AT3-OVA mammary tumors [2] = assay: AT3-OVA tumor growth in Rag1-/- mice; assay type: in vivo, mouse; design: key to Tumour growth: tumour size in mm^2 (two-dimensional caliper measurement); Tumour weights: unit not given here; settings: for Tumour size RAG1, mean: in mm2
# Experimental: (§1) Male or female mice were injected subcutaneously with 5 × 10^5 MC38 tumor cells resuspended in 100 μl D-PBS into the flank. Alternatively, female mice were injected orthotopically with 5 × 10^5 AT3 or AT3-OVA or PTPN2-deleted AT3 or AT3-OVA tumor cells resuspended in 20 μl D-PBS into the fourth mammary fat pad. Tumor sizes were measured in two dimensions (mm^2) using electronic callipers two to three times per week as soon as tumors were palpable (20–25 mm^2).
# AT3-OVA mammary tumors [3] = assay: AT3-OVA mammary tumor growth in C57BL/6 mice; assay type: in vivo, mouse; design: Tumour weights, individual mice: unit not given here; settings: for Tumour growth, individual mice: Figure 5A, in mm2
# Experimental: as §1
structure (smiles),measurement,setting,value
"CC(C)(O)CCOc1ccc2cc(O)c(N3CC(=O)NS3(=O)=O)c(F)c2c1 [Compound 182, 5-(1-Fluoro-3-hydroxy-7-(3-hydroxy-3-methylbutoxy)naphthalen-2-yl)−1,2,5-thiadiazolidin-3-one 1,1-dioxide]",morbidity or systemic inflammation,"[1]; AT3-OVA tumor-bearing mice, 10 mg/kg i.v.",not accompanied by overt signs of morbidity or systemic inflammation
same,overt toxicities,[1]; dosing every two days,did not result in any overt toxicities
same,AT3-OVA mammary tumor growth in Rag1-/- mice,"AT3-OVA mammary tumors [2]; 10 mg/kg i.v., mice lack T and B cells",no effect
same,Tumour growth,"AT3-OVA mammary tumors [2]; Figure 6E, RAG1 mice, n=6, individual animals, day 9 post injection, listed as CMP-182",7.7488 and 14.8962 and 11.224 and 3.9597 and 9.447 and 12.6224
same,Tumour growth,"AT3-OVA mammary tumors [2]; Figure 6E, RAG1 mice, n=6, individual animals, day 11 post injection, listed as CMP-182",19.6245 and 35.0523 and 26.8632 and 16.6934 and 15.0024 and 31.8592
same,Tumour growth,"AT3-OVA mammary tumors [2]; Figure 6E, RAG1 mice, n=6, individual animals, day 14 post injection, listed as CMP-182",31.9081 and 32.6823 and 36.7674 and 25.1923 and 36.3137 and 48.8592
same,Tumour growth,"AT3-OVA mammary tumors [2]; Figure 6E, RAG1 mice, n=6, individual animals, day 16 post injection, listed as CMP-182",59.5752 and 89.2808 and 73.4616 and 57.4821 and 68.9011 and 83.2686
same,Tumour growth,"AT3-OVA mammary tumors [2]; Figure 6E, RAG1 mice, n=6, individual animals, day 18 post injection, listed as CMP-182",74.7088 and 110.046 and 88.7004 and 79.0656 and 57.8454 and 92.4255
same,Tumour growth,"AT3-OVA mammary tumors [2]; Figure 6E, RAG1 mice, n=6, individual animals, day 21 post injection, listed as CMP-182",75.82 and 124.872 and 109.74 and 89.0525 and 89.04 and 103.68
same,Tumour growth,"AT3-OVA mammary tumors [2]; Figure 6E, RAG1 mice, n=6, individual animals, day 23 post injection, listed as CMP-182",84.728 and 134.64 (3×) and 89.0525 and 133.35
same,Tumour growth,"AT3-OVA mammary tumors [2]; Figure 6E, RAG1 mice, n=6, individual animals, day 25 post injection, listed as CMP-182",88 and 156.6 and 126.72 and 89.0525 and 186.66 and 168.74
same,Tumour weights,"AT3-OVA mammary tumors [2]; Figure 6E, RAG1 mice, n=6, individual animals, listed as CMP-182",270 and 560 and 890 and 220 and 490 and 330
same,"TUMOR WEIGHTS RAG1, median","AT3-OVA mammary tumors [2]; RAG1 mice, column B (Data Set-B), n=6, Figure 6E","410.0, n=6"
same,"Tumour size RAG1, mean over all time points (column mean)","AT3-OVA mammary tumors [2]; RAG1 mice, n=6, Figure 6E, mean of 8 time points",72.3 mm2
same,"Tumour size RAG1, mean","AT3-OVA mammary tumors [2]; RAG1 mice, n=6, time point 9, Figure 6E",9.983
same,"Tumour size RAG1, mean","AT3-OVA mammary tumors [2]; RAG1 mice, n=6, time point 11, Figure 6E",24.18
same,"Tumour size RAG1, mean","AT3-OVA mammary tumors [2]; RAG1 mice, n=6, time point 14, Figure 6E",35.29
same,"Tumour size RAG1, mean","AT3-OVA mammary tumors [2]; RAG1 mice, n=6, time point 16, Figure 6E",71.99
same,"Tumour size RAG1, mean","AT3-OVA mammary tumors [2]; RAG1 mice, n=6, time point 18, Figure 6E",83.8
same,"Tumour size RAG1, mean","AT3-OVA mammary tumors [2]; RAG1 mice, n=6, time point 21, Figure 6E",98.7
same,"Tumour size RAG1, mean","AT3-OVA mammary tumors [2]; RAG1 mice, n=6, time point 23, Figure 6E",118.5
same,"Tumour size RAG1, mean","AT3-OVA mammary tumors [2]; RAG1 mice, n=6, time point 25, Figure 6E",136
same,"repression of tumor growth, dosing every two days compared with every three days",AT3-OVA mammary tumors [3]; 10 mg/kg i.v.,more pronounced
same,"AT3-OVA tumor growth, administration every three days","AT3-OVA mammary tumors [3]; 10 mg/kg i.v., days 9-27, Supplementary Fig. 8",represses
same,growth of AT3-OVA mammary tumors,AT3-OVA mammary tumors [3]; 10 mg/kg intravenously every 2 days or every 3 days,effectively repressed the growth
same,Tumour weight d21 (median),"AT3-OVA mammary tumors [3]; AT-3-OVA, Figure 3A, column B, n=8","100.0, n=8"
same,"Tumour weights, individual mice","AT3-OVA mammary tumors [3]; C57BL/6, CMP-182 10 mg, n=8, Figure 5B",126 and 340 and 344 and 76 and 85 and 190 and 183 and 281
same,"Tumour growth, individual mice","AT3-OVA mammary tumors [3]; C57BL/6, CMP-182 10 mg, n=8, day 0 post injection",38.86 and 38.76 and 36.96 and 20 and 19.89 and 39.65 and 32.33 and 44.53
same,"Tumour growth, individual mice","AT3-OVA mammary tumors [3]; C57BL/6, CMP-182 10 mg, n=8, day 2 post injection",46.62 and 45 and 45.75 and 21.2 and 22.26 and 46.15 and 36.4 and 52

# Reference: publication PMC10374545, “A small molecule inhibitor of PTP1B and PTPN2 enhances T cell anti-tumor immunity” (Nature Communications, 2023)
